The text below walks through data of paper PMC5346462 (Biochimie, 2017).

The target of assay [1] is T1, MiGSTU (Mangifera indica glutathione S-transferase Tau class) (Mangifera indica, UniProt A0A1P8NWC2).
T1 sequence (A0A1P8NWC2 1-229): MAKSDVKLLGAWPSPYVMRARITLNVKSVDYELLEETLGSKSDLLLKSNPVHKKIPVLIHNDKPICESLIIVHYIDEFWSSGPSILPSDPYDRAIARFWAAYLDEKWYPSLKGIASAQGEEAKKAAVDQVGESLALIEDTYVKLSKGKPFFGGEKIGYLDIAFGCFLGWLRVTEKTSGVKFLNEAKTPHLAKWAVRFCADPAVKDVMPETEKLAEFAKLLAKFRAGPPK
The experiment in a line: steady-state enzyme kinetics of the purified enzyme. The assay is classed as biochemical. The conditions noted are these: read-out: CDNB / Km.

In assay [2] the target is Mangifera indica glutathione S-transferase Tau class (MiGSTU) (mango (Mangifera indica)). The experiment in a line: SEC. In general terms: Size exclusion chromatography separates by hydrodynamic size, large species first.

With `O=[N+]([O-])c1ccc(Cl)c([N+](=O)[O-])c1` [CDNB], the Km in assay [1] stood at 792 µM.

A word on the stoichiometry N: it is a count of units in the complex or per binding partner. Turning to “Mangifera indica glutathione S-transferase Tau class (MiGSTU) (enzyme)”, in assay [2], the stoichiometry N stood at 2.
